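Growth conditions: 96-well plates. Treatment: test compound, 48 hours, 5 concentrations. Analysis: linear interpolation between bracketing concentrations; unreached endpoints set to highest concentration. GI50 marks 50% less growth. Definition used: TGI = concentration required for complete inhibition of growth.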
Key:
Test in all cases: NCI-60 cell line screen, 48 h
M14 melanoma = tested on: M14 melanoma
OVCAR-4 ovarian = tested on: OVCAR-4 ovarian
UACC-62 melanoma = tested on: UACC-62 melanoma
NCI-H460 lung = tested on: NCI-H460 lung
MCF7 breast = tested on: MCF7 breast
HCT-15 colon = tested on: HCT-15 colon
RPMI-8226 leukemia = tested on: RPMI-8226 leukemia
MDA-MB-435 = tested on: MDA-MB-435
KM12 colon = tested on: KM12 colon
NCI-H226 lung = tested on: NCI-H226 lung
A498 renal = tested on: A498 renal
TK-10 renal = tested on: TK-10 renal
HCT-116 colon = tested on: HCT-116 colon
OVCAR-8 ovarian = tested on: OVCAR-8 ovarian
OVCAR-3 ovarian = tested on: OVCAR-3 ovarian
LOX IMVI melanoma = tested on: LOX IMVI melanoma
BT-549 breast = tested on: BT-549 breast
DU-145 prostate = tested on: DU-145 prostate
A549 NSCLC = tested on: A549 NSCLC
COLO 205 colon = tested on: COLO 205 colon
SN12C renal = tested on: SN12C renal
MALME-3M melanoma = tested on: MALME-3M melanoma
HS 578T breast = tested on: HS 578T breast
SR leukemia = tested on: SR leukemia
HCC-2998 colon = tested on: HCC-2998 colon
SK-OV-3 ovarian = tested on: SK-OV-3 ovarian
HT29 colon = tested on: HT29 colon
CAKI-1 renal = tested on: CAKI-1 renal
SNB-75 CNS = tested on: SNB-75 CNS

Work on `NC(=O)c1c(NC(=O)c2ccc(C(F)(F)F)cc2)sc2c1CCC(=O)C2` yielded a GI50 (M14 melanoma) of 1860 nM, a TGI (M14 melanoma) of 4560 nM and a GI50 (OVCAR-4 ovarian) of 1940 nM. The TGI (OVCAR-4 ovarian) was 4830 nM, the GI50 (UACC-62 melanoma) was 758 nM and the TGI (UACC-62 melanoma) was 2350 nM. For the same compound, the GI50 (NCI-H460 lung) was 3350 nM, the TGI (NCI-H460 lung) was 12800 nM and the GI50 (MCF7 breast) was 1370 nM. The TGI (MCF7 breast) was 10100 nM, the GI50 (HCT-15 colon) was 699 nM and the TGI (HCT-15 colon) was 2810 nM. For the same compound, the GI50 (RPMI-8226 leukemia) was 279 nM, the TGI (RPMI-8226 leukemia) was 1260 nM and the GI50 (MDA-MB-435) was 1950 nM. It also gave a TGI (MDA-MB-435) of 4750 nM, a GI50 (KM12 colon) of 1720 nM and a TGI (KM12 colon) of 7180 nM. For the same compound, the GI50 (NCI-H226 lung) was 2040 nM, the TGI (NCI-H226 lung) was 4980 nM and the GI50 (A498 renal) was 5060 nM. For the same compound, the TGI (A498 renal) was 19200 nM, the GI50 (TK-10 renal) was 1660 nM and the TGI (TK-10 renal) was 11200 nM. The GI50 (HCT-116 colon) was 369 nM, the TGI (HCT-116 colon) was 3550 nM and the GI50 (OVCAR-8 ovarian) was 1850 nM. The TGI (OVCAR-8 ovarian) was 25000 nM, the GI50 (OVCAR-3 ovarian) was 575 nM and the TGI (OVCAR-3 ovarian) was 2470 nM. The GI50 (LOX IMVI melanoma) was 391 nM, the TGI (LOX IMVI melanoma) was 2240 nM and the GI50 (BT-549 breast) was 569 nM. It also gave a TGI (BT-549 breast) of 7210 nM, a GI50 (DU-145 prostate) of 4810 nM and a TGI (DU-145 prostate) of over 100000 nM. The GI50 (A549 NSCLC) was 3120 nM, the TGI (A549 NSCLC) was 15400 nM and the GI50 (COLO 205 colon) was 1550 nM. For the same compound, the TGI (COLO 205 colon) was 3930 nM, the GI50 (SN12C renal) was 2230 nM and the TGI (SN12C renal) was 13200 nM. The GI50 (MALME-3M melanoma) was 1080 nM, the TGI (MALME-3M melanoma) was 3100 nM and the GI50 (HS 578T breast) was 1890 nM. For the same compound, the TGI (HS 578T breast) was 19300 nM, the GI50 (SR leukemia) was 393 nM and the TGI (SR leukemia) was over 100000 nM. It also gave a GI50 (HCC-2998 colon) of 2490 nM, a TGI (HCC-2998 colon) of 6950 nM and a GI50 (SK-OV-3 ovarian) of 3030 nM. The TGI (SK-OV-3 ovarian) was over 28600 nM, the GI50 (HT29 colon) was 1070 nM and the TGI (HT29 colon) was 5260 nM. The GI50 (CAKI-1 renal) was 750 nM, the TGI (CAKI-1 renal) was 2430 nM and the GI50 (SNB-75 CNS) was 1790 nM. For the same compound, the TGI (SNB-75 CNS) was 5950 nM.
